5 molecules from patent publication US11147820B2, “Methods for treating GI tract disorders” (Neurogastrx, Inc., priority 2012, dated 2021) can be followed below.

The test system of series [1] is cardiac action potentials. In words: Canine cardiac action potentials by electrocardiography and telemetry. Conditions: dogs, oral gavage, post-dose period 1-6 hours, vs vehicle. The class given is in vivo. From the text:
Anesthesia is introduced to dogs. Balanced gaseous anesthesia is used throughout the surgical procedure. Once anesthetized, animals are shaved and surgically scrubbed, encompassing surgical sites of the right inguinal area, chest and right lateral abdomen. Throughout the surgical procedure, animals are monitored for continuous assessment of vital signs. An incision is made along the right medial thigh and the femoral artery exposed by blunt dissection. Another incision is made in the lateral lumbar area cranial to the iliac crest for a tunneling needle to be passed subcutaneously from the incision on the medial thigh to the lumbar incision. A blood pressure catheter is passed through the needle from the lumbar incision and the needle removed. The femoral artery is ligated distally and incised to insert a catheter that is advanced until the tip resided in the femoral artery/abdominal aorta. The catheter is then secured by ligation. The incision in the lumbar area is enlarged and a subcutaneous pocket created in the left dorsal lumbar area to hold the transmitter body. The transmitter (e.g., Data Sciences International, St Paul, Minn., USA) is inserted into the subcutaneous pocket and secured body. Electrocardiography (ECG) leads are positioned. The incision is closed. Postoperative recovery lasts, e.g., about 2 weeks during which supplemental analgesics/antibiotics are administered as needed. Once the postoperative recovery period is complete, the animal is examined for study acceptability by the staff veterinarian and the implanted transmitter signal verified. […] ECGs, heart rate and arterial blood pressure data are recorded 1 hour prior to and then continuously for at least 6 hours following compound and/or vehicle administration. A blood sample for determination of compound plasma concentrations is collected from all subjects at approximately 6 h post-dose. […] Standard ECG intervals (PR, RR, QRS and QT) are automatically measured by the data acquisition system and reported as, e.g., 10 min averages. […] Dose-level averages (and accompanying standard deviation (s.d.) of these baseline-adjusted 10 min averages are calculated across study animals. ANOVA (e.g., repeated measures ANOVA) are applied to these baseline-adjusted averages. Pairwise t-tests are applied within the ANOVA to identify the presence of significant differences of the dose levels relative to vehicle. These t-tests are performed at a 0.05/2=0.025 significance level, so that the overall error rate across the comparisons in a given interval are not higher than 0.05. ECG interval data (reported at 30 min intervals) are analyzed using, e.g., repeated-measures ANOVA techniques similar to the systemic blood pressure and heart rate data described above.

A further series has as its system gastric motility. Put plainly: Antral manometry in canines (gastric motility). Conditions: for motor dysfunction: canines. The class given is in vivo. How it is done:
Two healthy female hound dogs (24-28 kg) were involved in this study. Animals were fed an ad libitum chow diet (LabDiet®). After an overnight fast, the dogs were anesthetized with Pentothal (sodium thiopental, 11 mg/kg IV; Abbott Laboratories, North Chicago, Ill.) and maintained on 2-4% isoflurane (Abbott Laboratories) in oxygen (1 L/min) carrier gases delivered from a ventilator after endotracheal intubation. A cannula was placed in the jejunum 20 cm distal to the pylorus for the assessment of antral motility. Dogs were allowed to recover in their individual cages for 2 weeks. All experiments were performed after the dogs were completed recovered from the surgical procedure. The study was performed according to the National Institutes of Health Guidelines on the use of laboratory animals and approved by the Animal Care and Use Committee of the University of Texas Medical Branch at Galveston, Tex. To investigate the effect of the drugs on antral manometry, the study of each drug dose was done on three randomized sessions on separate days following the consumption of one can of solid dog food: 1) a Control session: In which animals received the vehicle only; 2) Dose I session: in which the lower dose of the drug was used; and 3) Dose II session: in which the higher dose of the drug was used (please refer to table for drug doses). Drug administration was performed according to Table 4, below. [table] Antral manometry was performed as follows. Following an overnight fast, an intraluminal water-perfused manometry catheter was inserted into the antrum through the jejunal cannula. Antral manometry recording was initiated after the consumption of one can of solid food and continued for 3 hours. The catheter contained 3 manometric sensors at a 1 cm interval. Dogs were given 10 minutes of accommodation, prior to the start of the recording. For data analysis, motility index (MI), defined as the integrated area (area under curve—AUC) between baseline and contractions per hour, was calculated. For statistical analysis, the Student's t-test was used for assessment of individual differences between groups (High dose, low dose of each drug) compared to control—Microsoft® Excel 2002). All values are expressed as mean±SEM.

The next series has as its system gastric emptying. In words: Gastric emptying in rodents, metopimazine. It counts as in vivo. As to conditions: preliminary.
The subject of another series is solid gastric emptying. In words: Solid gastric emptying in rats, S-carbidopa. It counts as in vivo, Sprague-Dawley rats. As to conditions: 1 mg/kg, initial results. As for the experimental part:
Male Sprague-Dawley rats, purchased from the Charles River Lab, were housed in the animal facility of Veterans Research Education Foundation, which was maintained at 22˜24° C., 55% relative humidity, with an automatic 12 h light/dark cycle. The animals received a standard laboratory rat chow and tap water ad libitum. The rats were around 400 g at 14 weeks age when used in gastric emptying study.
S-Carbidopa was purchased from Sigma (#: C1335). Stock solution of S-Carbidopa was prepared at 5 mg/ml using DMSO as solvent. 80 μl stock solution was further diluted into 1 ml distilled water to make 0.4 mg/ml. The effect of S-Carbidopa (1 mg/kg) on solid gastric emptying was studied.
Male SD rats were involved in this study. Rats were fasted in cages with metal wired mesh for 24 hours with free access to water; S-carbidopa (1 mg/kg) was administered to the rats by oral gavage. Control rats were not administered S-carbidopa. 15 minutes following administration, rats were given access to 2 g of rat chow pellets for ten minutes. All rats completely ingested the chow within the 10 minute time frame. Rats were sacrificed by sodium pentobarbital (100 mg/kg) overdose 90 min after feeding. […] Solid gastric emptying was calculated according to the following formula: Gastric emptying (%)=[1−(dried gastric content in g)/2 g]×100. All values are expressed as mean±SEM. […]

Take `CS(=O)(=O)c1ccc2c(c1)N(CCCN1CCC(C(=O)O)CC1)c1ccccc1S2` [Metopimazine acid]: the peripheral restriction result in the series “Peripheral restriction” is listed as “peripherally restricted agents”. The QTc intervals result in series [1] was “no significant increases”.
Turning to `CS(=O)(=O)c1ccc2c(c1)N(CCCN1CCC(C(N)=O)CC1)c1ccccc1S2` [Metopimazine, 1-[3-[2-(methylsulfonyl)-10H-phenothiazin-10-yl]propyl]-piperidine-4-carboxamide], the peripheral restriction entry in the series “Peripheral restriction” is given as “peripherally restricted agents”. For the same molecule, in the series on gastric motility, the motor dysfunction result is “no motor dysfunction was observed”. Also, the “increase in gastric emptying as compared to vehicle control” value in the series with gastric emptying (3 mg/kg) is “about 40%”. In addition, in the series with gastric emptying (pooling the 3 mg/kg and 10 mg/kg doses), the “increase in gastric emptying as compared to vehicle control, overall effect” value is on record as “about 20%”. Moreover, in series [1], the QTc intervals result is “no significant increases”.
As for `C[C@@](Cc1ccc(O)c(O)c1)(NN)C(=O)O` [S-Carbidopa, (2S)-3-(3,4-dihydroxyphenyl)-2-hydrazino-2-methylpropanoic acid], in the series with gastric motility (1 mg/kg IV, 15 min prior to meal, all three channels, p=0.05), the “motility index (MI)” value was “robustly increased MI”. Besides, in the series on gastric motility, the motor dysfunction entry is recorded as “no motor dysfunction was observed”. Further, the “solid gastric emptying compared to control rats” value with solid gastric emptying is listed as “improves solid gastric emptying”. Also, the QTc intervals result in series [1] was “no significant increases”.
Regarding `CN(CCOc1ccc(NS(C)(=O)=O)cc1)CCc1ccc(NS(C)(=O)=O)cc1` [dofetilide], in series [1], the QTc intervals entry is recorded as “increased”.
As to `Cl.NCCc1ccc(O)c(O)c1` [dopamine hydrochloride], the “motility index (MI)” value in the series on gastric motility (50 mg/canine IV, immediately before meal, all channels, p=0.06) is given as “decreased MI”.
